Measured values: PMC13316043, “Structural basis of NSD2 degradation via targeted recruitment of SCF-FBXO22” (Nature Communications, 2026)

How the values were obtained:
[1] = biological target: T1, *NSD2 PWWP1 ubiquitination by SCF^FBXO22 (Homo sapiens, UniProt O96028+Q8NEZ5); test: Ubiquitination assay using purified components; type: biochemical; conditions: for SCF^FBXO22-dependent ubiquitination of *NSD2 PWWP1: compound at 0.5 µM, fluorescent SDS-PAGE; for hook effect upon titration in ubiquitination assay: compound titration
T1 construct: fluorescently labeled NSD2-PWWP1 (*NSD2-PWWP1); the FIST domain of FBXO22 rather than full-length FBXO22 that is used in the ubiquitination; 6xHis (N, cleaved yes); GST (cleaved yes); made in house; host or cells: SKP1-FBXO22: Trichoplusia ni insect cells; NSD2 PWWP1 and NEDD8: E. coli BL21(DE3)-CodonPlus RIL
T1 sequence (Q8NEZ5 whole entry, one chain of several, the tested form may be a part): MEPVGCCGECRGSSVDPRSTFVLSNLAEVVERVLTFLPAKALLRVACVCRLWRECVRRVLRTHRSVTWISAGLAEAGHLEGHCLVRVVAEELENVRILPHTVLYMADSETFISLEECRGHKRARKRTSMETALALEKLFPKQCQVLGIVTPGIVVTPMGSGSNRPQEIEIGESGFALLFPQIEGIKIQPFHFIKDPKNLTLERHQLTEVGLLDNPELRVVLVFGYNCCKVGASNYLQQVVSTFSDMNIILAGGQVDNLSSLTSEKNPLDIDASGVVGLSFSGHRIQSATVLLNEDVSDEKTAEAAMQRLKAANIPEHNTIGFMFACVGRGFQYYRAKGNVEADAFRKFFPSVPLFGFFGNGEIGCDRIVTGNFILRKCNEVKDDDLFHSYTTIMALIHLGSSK
Description: Ubiquitination assays were performed by mixing 2 separate solutions. First, SKP1-FBXO22, fluorescently labeled NSD2-PWWP1 (*NSD2-PWWP1), and compounds, unless otherwise indicated, were pre-incubated for 15 min on ice. Second, UBA1, UBE2R2, UBE2D2 or UBE2L3 and ARIH1, NEDD8 ~ CUL1-RBX1, MgATP, and reaction buffer (20 mM HEPES pH 8, 200 mM NaCl, 0.5 mg/mL bovine serum albumin (BSA)) were combined on ice to generate a master mix. A standard volume of master mix was added to each reaction tube, and Ub was added to initiate the ubiquitination reaction containing 100µM Ub, 1µM SKP1-FBXO22, 0.5µM *NSD2 PWWP1, 0.5µM compound, 0.1µM UBA1, 1µM UBE2R2, 1µM UBE2D2 or 1µM UBE2L3, and 1µM ARIH1, 1µM NEDD8~CUL1-RBX1, and 5mM MgATP in reaction buffer. Ubiquitination assays comparing *NSD2 PWWP1 mutants were performed similarly, except that SKP1-FBXO22, *NSD2 PWWP1 mutants, and compounds were not incubated separately prior to the start of the reaction. The reactions proceeded at room temperature for 15 min until they were quenched by adding SDS Loading Buffer. The ubiquitinated *NSD2 PWWP1 was visualized by subjecting the reactions to SDS-PAGE and imaging using the Amersham Typhoon.

[2] = biological target: T2, NSD2 (long and short forms) (Homo sapiens, UniProt O96028); test: Western blot of NSD2 in HEK293T cells; type: cell-based; conditions: 10 µM, 6 hrs, vs DMSO
T2 sequence (O96028 211-350 limits assumed): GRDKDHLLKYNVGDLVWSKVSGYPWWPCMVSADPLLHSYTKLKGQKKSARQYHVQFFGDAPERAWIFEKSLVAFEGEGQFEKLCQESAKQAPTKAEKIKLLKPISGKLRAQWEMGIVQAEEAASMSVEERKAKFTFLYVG
Description: HEK293T and U2OS were obtained from ATCC and cultured in high-glucose-containing Dulbecco’s Modified Eagle’s Medium (DMEM; Gibco; cat. #11995) supplemented with 10% fetal bovine serum (VWR) and 1% penicillin/streptomycin (Gibco). Cells were treated with either UNC10415667, UNC12149, UNC12567, hemin (Sigma; cat. #H9039), or DMSO control for the indicated times and analyzed by western blot using standard procedures. Briefly, cells were lysed on ice for 15 min in NETN lysis buffer (20 mM Tris pH 8.0, 100 mM NaCl, 0.5 mM EDTA, 0.5% NP40) supplemented with 10 µg/mL aprotinin, 10 µg/mL leupeptin, 10 µg/mL pepstatin A, 1 mM sodium orthovanadate, 1 mM sodium fluoride, and 1 mM AEBSF (4-[two aminoethyl] benzenesulfonyl fluoride). Cell lysates were centrifuged at 20,000×g in a benchtop microcentrifuge at 4 °C for 10 min. Protein concentration was determined by Bradford assay (Bio-Rad; cat. #5000006). Protein concentration was normalized using Laemmli buffer. Samples were heated for 5 min at 95°C in a dry water-bath. Samples were separated on TGX stain free gels (Bio-Rad) transferred to nitrocellulose membrane and blocked in 5% non-fat dry milk (Biorad; cat. #1706404) diluted in 1x TBS-T (137 mM NaCl, 2.7 mM KCl, 25 mM Tris pH 7.6, 1% Tween-20). Primary antibody incubations (Anti-NSD2 (Abcam; Cat# ab75359; Lot# 1093214-1; 1:1000 dilution), Anti-BACH1 (Fortis Life Sciences; Cat# A303-805A; Lot# 1; 1:1000 dilution), and Anti-GAPDH (Santa Cruz Biotechnology; Cat# sc-47724; Lot# C1023; 1:1000 dilution)) were performed overnight at 4 °C. Secondary antibodies (Peroxidase AffiniPure Goat Anti-Rabbit IgG (H + L) (Jackson Immuno; Cat# 111-035-003; 1:5000 dilution) and Peroxidase AffiniPure Goat Anti-Mouse IgG (H + L) (Jackson Immuno; Cat# 115-035-003; 1:5000 dilution)) were incubated for 1 h at room temperature. Blots were developed by chemiluminescence using Pierce ECL (Thermo Fisher Scientific; cat. #32106).

SMILES	SCF^FBXO22-dependent ubiquitination of *NSD2 PWWP1 [1]	hook effect upon titration in ubiquitination assay [1]	NSD2 levels by immunoblot [2]
O=C1COc2cc(C(=O)N(Cc3ccc(C(=O)Nc4ccc5c(c4)CCN(C(=O)CCCCC(O)S(=O)(=O)O)C5)cc3)C3CC3)ccc2N1 (stereo not shown) [UNC10088]	promotes ubiquitination	observed hook effect	degradation of NSD2
Cc1cc(C=O)ccc1C(=O)N1CCc2cc(NC(=O)c3ccc(CN(C(=O)c4ccc5c(c4)OCC(=O)N5)C4CC4)cc3)ccc2C1 [UNC12149]	significant in vitro NSD2 ubiquitination		
O=Cc1ccc(C(=O)N2CCc3cc(NC(=O)c4ccc(CN(C(=O)c5ccc6c(c5)OCC(=O)N6)C5CC5)cc4)ccc3C2)cc1 [UNC10415667]	to the same extent as UNC10088	characteristic hook effect	completely degraded
